Measurements published in paper PMC5103216, “Novel Agonist Bioisosteres and Common Structure-Activity Relationships for The Orphan G Protein-Coupled Receptor GPR139” (Scientific Reports, 2016).

What was measured:
Assay type in all cases: cell-based
M1 receptor [1] = target: T1, M1 receptor (Homo sapiens, UniProt P11229); assay: IP-One HTRF assay in CHO-M1 (control)
T1 construct: host or cells: CHO-k1
T1 sequence (P11229 1-460): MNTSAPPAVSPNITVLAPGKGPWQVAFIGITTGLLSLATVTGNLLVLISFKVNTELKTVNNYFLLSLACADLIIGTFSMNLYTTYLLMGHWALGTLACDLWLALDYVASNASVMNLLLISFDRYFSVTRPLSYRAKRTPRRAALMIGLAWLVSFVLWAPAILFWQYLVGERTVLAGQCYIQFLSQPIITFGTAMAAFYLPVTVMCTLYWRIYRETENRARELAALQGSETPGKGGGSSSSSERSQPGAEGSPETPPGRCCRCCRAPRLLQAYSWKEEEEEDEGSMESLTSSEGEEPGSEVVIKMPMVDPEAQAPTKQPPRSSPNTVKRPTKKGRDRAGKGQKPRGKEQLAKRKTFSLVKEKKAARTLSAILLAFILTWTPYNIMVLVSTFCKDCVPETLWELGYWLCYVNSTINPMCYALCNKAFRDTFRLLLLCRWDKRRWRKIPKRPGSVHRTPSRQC
Experimental: Figure 3 IP-One HTRF® assay measuring Gq activation. Concentration-response curves of 1a, 7c (racemic), L-Trp, L-Phe, DL43, DL126, DL24, DL22, DL132 and DL130 on (A) CHO-139 and (B) CHO-M1 in the IP-One assay (final conc of LiCl = 20 mM). The dotted line represent the [IP1] response from (A) 10 μM 1a and (B) 1 μM carbachol, which is an agonist for the muscarinic acethylcholine receptor M1 that activates the Gq coupled pathway. The graphs are means ± SEM based on three independent experiments performed in triplicates.
The IP-One assay was performed as described in the work by Thomsen et al.[28], with few modifications. Breifly, CHO-139 and CHO-M1 were detached and re-suspended to a concentration of 10 million cells/mL. 5 μL 2x concentrated compound (+40 mM LiCl) and 5 μL cell suspension (50,000 cells/well) was mixed. The plate was sealed and incubated at 37 °C for 1 hour. Next, 10 μL detection reagents (lysis buffer containing 2.5% Eu^3+-anti-IP1 antibody and 2.5% IP1-d2) was added and the plate was incubated for 1 hour at room temperature. The plate was read on an Envision (PerkinElmer, Waltham, MA, USA). The time resolved-fluorescence resonance energy transfer (TR-FRET) 665 nm/615 nm ratio, which is inversely proportional to the inositol monophosphate (IP1) accumulation, was used to determine the concentration of the IP1 response.

GPR139 = target: T2, GPR139 (Homo sapiens, UniProt Q6DWJ6); assay: cAMP dynamic 2 assay measuring Gs activation in CHO-139
T2 sequence (Q6DWJ6 1-353): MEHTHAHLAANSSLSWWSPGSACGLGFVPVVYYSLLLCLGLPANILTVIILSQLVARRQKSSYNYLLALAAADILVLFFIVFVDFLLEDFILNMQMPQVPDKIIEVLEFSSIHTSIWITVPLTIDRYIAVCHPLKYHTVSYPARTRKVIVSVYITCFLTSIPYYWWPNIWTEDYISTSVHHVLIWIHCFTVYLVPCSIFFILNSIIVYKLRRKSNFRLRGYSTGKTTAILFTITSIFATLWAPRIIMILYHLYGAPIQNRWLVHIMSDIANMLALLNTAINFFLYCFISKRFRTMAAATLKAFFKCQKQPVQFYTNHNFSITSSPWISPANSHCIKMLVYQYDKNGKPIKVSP
Experimental: (§1) The cAMP assay was performed as described in the work by Thomsen et al.[28] with few modifications. Breifly, CHO-139 and CHO-M1 was detached and resuspended to a concentration of 1 million cells/mL. 5 μL 2x concentrated compound (for Gs: +100 μM IBMX and for Gi: +100 μM IBMX +10 μM forskolin (Fsk)) and 5 μL cell suspension (5,000 cells/well) was mixed. The plate was sealed and incubated at room temperature for 30 min. Next, 10 μL detection reagents (lysis buffer containing 2.5% Eu^3+-anti-cAMP antibody and 2.5% cAMP-d2) was added and the plate was incubated for 1 hour at room temperature. The plate was read on an Envision (PerkinElmer, Waltham, MA, USA). The TR-FRET 665 nm/615 nm ratio, which is inversely proportional with the cAMP production, was used to determination the concentration of the cAMP response. […]
(§2) Supplementary Figure 1. cAMP dynamic 2 assay measuring Gs activation. 5,000 cells/well of CHO-139 (pink bars) or CHO-M1 (blue bars) cells are
(§3) incubated with the indicated compounds for 30 min at room temperature in the presence of 50 µM IBMX. 5 µM and 10 µM forskolin (Fsk) serves as positive
(§4) controls. The responses are one representative out of at two independent experiments performed in triplicates. Data points are means ± SD. […]
(§5) Data points are means ± SD.

M1 receptor [2] = target: T1, M1 receptor; assay: cAMP dynamic 2 assay measuring Gs activation in CHO-M1 (control)
Experimental: as §1, §2, §3, §4, §5

| Compound | IP1 response in CHO-M1 cells (M1 receptor [1]) | Gs response (cAMP) (GPR139) | Gs response (cAMP) (M1 receptor [2]) |
| --- | --- | --- | --- |
| O=C(CN1CCCc2ccccc21)NNC(=O)c1ccc2c(c1)OCO2 [DL22] | no response is seen in CHO-M1 cells | None of the tested compounds induced Gs response | None of the tested compounds induced Gs response |
| COc1cc(OC)cc(C(=O)NNC(=O)C2CCCc3ccccc32)c1 (stereo not drawn) [DL24] | no response is seen in CHO-M1 cells | None of the tested compounds induced Gs response | None of the tested compounds induced Gs response |
| CCn1c(C)nc2cc(C(=O)NNC(=O)Cc3cccc4ccccc34)ccc21 [DL43] | no response is seen in CHO-M1 cells | None of the tested compounds induced Gs response | None of the tested compounds induced Gs response |
| O=C(Cc1cccc2ccccc12)NNC(=O)c1ccc2c(c1)OCO2 [DL126] | no response is seen in CHO-M1 cells | None of the tested compounds induced Gs response | None of the tested compounds induced Gs response |
| O=C(CNC(=O)c1ccc2c(c1)OCO2)NC1CCSc2ccc(F)cc21 (stereo not drawn) [DL130] | no response is seen in CHO-M1 cells | None of the tested compounds induced Gs response | None of the tested compounds induced Gs response |
| O=C(NCC(=O)N1CCCC1c1ccccc1)c1ccc2c(c1)OCO2 (stereo not drawn) [DL132] | no response is seen in CHO-M1 cells | None of the tested compounds induced Gs response | None of the tested compounds induced Gs response |
